Data reported in patent EP0444898A1, “Cyclic hexapeptide oxytocin antagonists” (MERCK & CO. INC., priority 1990, dated 1991).

Target: T1, uterine OT receptors (Rattus norvegicus, UniProt P70536)
T1 construct: a crude membrane preparation of uteri; from tissue; host or cells: uterus of DES-treated rats, crude membranes
T1 sequence (P70536 1-388): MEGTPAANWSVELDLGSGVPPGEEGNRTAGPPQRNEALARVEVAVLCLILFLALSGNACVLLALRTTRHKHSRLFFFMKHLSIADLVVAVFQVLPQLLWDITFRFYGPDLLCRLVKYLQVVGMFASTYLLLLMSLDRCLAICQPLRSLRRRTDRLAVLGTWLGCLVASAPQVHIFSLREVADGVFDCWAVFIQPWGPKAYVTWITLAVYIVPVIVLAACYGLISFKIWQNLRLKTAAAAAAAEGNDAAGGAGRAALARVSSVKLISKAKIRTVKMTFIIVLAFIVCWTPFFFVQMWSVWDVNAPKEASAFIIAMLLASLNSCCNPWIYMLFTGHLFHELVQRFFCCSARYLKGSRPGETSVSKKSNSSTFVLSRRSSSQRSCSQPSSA
Assay: [3H]OT radioligand binding to uterine OT receptors, crude membrane preparation
Set-up: species or system rats
Details: saturation binding assays; uterus

[tyrosyl, 3,5-^3H]OT [[^3H]OT]
Kd: 700 pM
